Laboratory results reported in paper PMC6792352, “Limited Chemical Structural Diversity Found to Modulate Thyroid Hormone Receptor in the Tox21 Chemical Library” (Environmental Health Perspectives, 2019).
Counter-ions that a name gives are not always drawn.

Experiment: in vitro
Conditions: rat, gh3-tre-luc cells, AC50 (uM) modified / 1000

Row | Structure (SMILES) | CC50 at 24 h [µM]
1 | Nc1ccc(Oc2ccc(N)c(N)c2)cc1 [3,4,4'-Triaminodiphenyl ether] | 75.2
2 | CC(C)Cc1nccs1 [2-(2-Methylpropyl)thiazole] | > 90
3 | CC1CC(CC2CCC(N)C(C)C2)CCC1N (stereo not shown) [Bis(4-amino-3-methylcyclohexyl)methane] | 46.8
4 | CC1(C)CC/C(=C\c2ccc(Cl)cc2)C1(O)Cn1cncn1 (stereo not shown) [Triticonazole] | > 90
5 | O=C1C(I)=CC(=C(c2cc(I)c(O)c(I)c2)c2ccccc2C(=O)O)C=C1I [Iodophthalein sodium] | 41.3
6 | Nc1ccc(N=Nc2ccccc2)c(N)c1 [C.I. Basic Orange 2] | 64.1
7 | CCCCCCCCCCCCCOP(=O)(O)O [Monotridecyl phosphate] | > 90
8 | CCCCCOC(=O)CCCCC [Pentyl hexanoate] | > 90
9 | CCCCNc1ccccc1 [N-Butylaniline] | > 90
10 | CCCC1CCC(=O)CC1 [4-Propylcyclohexanone] | > 90
11 | Nc1ccn(C[C@@H](CO)OCP(=O)(O)O)c(=O)n1 [Cidofovir] | > 50
12 | CC(=O)[C@H]1CC[C@H]2[C@@H]3C=CC4=CC(=O)CC[C@@]4(C)[C@@H]3CC[C@]12C [Dydrogesterone] | > 20
13 | Cc1ccc(C(N)=O)cc1N [3-Amino-4-methylbenzamide] | > 90
14 | CCOC(=O)/C=C/c1ccccc1 [Ethyl cinnamate] | > 90
15 | Nc1ccc2c3c(cccc13)-c1ccccc1-2 [3-Aminofluoranthene] | > 90
16 | O[C@@H]([C@H](O)[C@H](O)CBr)[C@H](O)CBr [Dibromomannitol] | > 90
17 | CCC(C)OC(=O)N1CCCCC1CCO (stereo not shown) [Icaridin] | > 90
18 | CCCCCCOC(=O)CCCCC [Hexyl hexanoate] | > 90
19 | C#CCN(C)[C@H](C)Cc1ccccc1 [Selegiline hydrochloride] | > 50
20 | CC(=O)OCC(=O)[C@H]1CC[C@H]2[C@@H]3CCC4=CC(=O)CC[C@]4(C)[C@H]3CC[C@]12C [Deoxycorticosterone acetate] | > 50
21 | COC(=O)C(Br)CBr (stereo not shown) [Methyl 2,3-dibromopropionate] | > 90
22 | c1cnc2c(n1)CCCC2 [5,6,7,8-Tetrahydroquinoxaline] | > 90

Row | Structure (SMILES) | CC50 at 24 h [µM]
23 | C=CCCCCCCCCC(=O)O [10-Undecenoic acid] | > 90
24 | CCCCCCCCCCCCCCCCCCNC(=O)OC1CCN(C(=O)OC[C@H](COC(=O)N(Cc2cccc[n+]2CC)C(=O)c2ccccc2OC)OC)CC1 [Minopafant] | 13.6
25 | O=C(C(Cl)Cl)N1CCOC12CCCCC2 [MON-4660] | 62.3
26 | Nc1cc[nH]c(=O)n1 [Cytosine] | > 90
27 | COC(=O)NS(=O)(=O)c1ccc(N)cc1 [Asulam] | > 90
28 | CCO/C=C1\N=C(c2ccccc2)OC1=O [Oxazolone] | 64.5
29 | CC(=O)O[C@H]1C[C@@H]2CC[C@@H]3[C@H](CC[C@@]4(C)[C@H]3C[C@H](N3CC[N+](C)(C)CC3)[C@@H]4OC(C)=O)[C@@]2(C)C[C@@H]1N1CC[N+](C)(C)CC1 [Pipecuronium bromide] | > 50
30 | C1CCC2(CCCCO2)OC1 [1,7-Dioxaspiro[5.5]undecane] | > 90
31 | O=C1OC[C@@H](Cc2cccc(O)c2)[C@@H]1Cc1cccc(O)c1 [Enterolactone] | > 30
32 | Cc1[nH]cnc1CN1CCc2c(c3ccccc3n2C)C1=O [Alosetron hydrochloride] | > 50
33 | NCC(O)c1cccc(O)c1 (stereo not shown) [Norfenefrine hydrochloride] | > 50
34 | Brc1cc2ccccc2c2ccccc12 [9-Bromophenanthrene] | > 90
35 | BrC/C=C/CBr [(E)-1,4-Dibromo-2-butene] | > 20
36 | Clc1sc(Cl)c(Cl)c1Cl [Tetrachlorothiophene] | > 90
37 | C=CC[C@]1(O)CC[C@H]2[C@@H]3CCC4=CC(=O)CCC4=C3C=C[C@@]21C [Altrenogest] | > 50
38 | CC1=NN(c2cc(Cl)c(S(=O)(=O)O)cc2Cl)C(=O)C1N=Nc1ccc(S(=O)(=O)O)cc1 (stereo not shown) [C.I. Acid Yellow 17, disodium salt] | 92.5
39 | O=C(OCC1(COC(=O)c2cccnc2)CCCC(COC(=O)c2cccnc2)(COC(=O)c2cccnc2)C1O)c1cccnc1 [Nicomolol] | > 50
40 | CCOC(=O)O[C@H](C)OC(=O)c1ccc2c(c1)cc(C(=O)NC1CCN(C(C)C)CC1)n2Cc1cc(-c2ccc(Cl)s2)on1 [AVE6324] | 4.58
41 | COC(=O)CCC(=O)OC [Dimethyl succinate] | > 90
42 | CCc1nc(C)c[nH]1 [2-Ethyl-4-methyl-1H-imidazole] | > 90
43 | COc1cc([C@@H]2c3cc4c(cc3[C@@H](O[C@@H]3O[C@@H]5CO[C@@H](c6cccs6)O[C@H]5[C@H](O)[C@H]3O)[C@H]3COC(=O)[C@H]23)OCO4)cc(OC)c1O [Teniposide] | 4.5
44 | CC(=O)c1c(C)cc(C(C)(C)C)cc1C [4'-tert-Butyl-2',6'-dimethylacetophenone] | > 90

Row | Structure (SMILES) | CC50 at 24 h [µM]
45 | Nc1ncnc2c1ncn2[C@H]1CC[C@@H](CO)O1 [2',3'-Dideoxyadenosine] | > 90
46 | CCOC(=N)CC(=O)OCC [Ethyl 3-ethoxy-3-iminopropionate hydrochloride] | > 90
47 | CCN[C@@H]1C[C@H](N)[C@@H](O[C@H]2OC(CN)=CC[C@H]2N)[C@H](O)[C@H]1O[C@H]1OC[C@](C)(O)[C@H](NC)[C@H]1O [Netilmicin sulfate] | > 50
48 | CC(=O)NCCCCCC(=O)O [Acexamic acid] | > 50
49 | Cc1ccc(CO)cc1 [4-Methylbenzyl alcohol] | > 90
50 | CNC(=NCCSCc1csc(N=C(N)N)n1)NC#N [Tiotidine] | > 50
51 | O=C(NC(Cc1cc(=O)[nH]c2ccccc12)C(=O)O)c1ccc(Cl)cc1 (stereo not shown) [Rebamipide] | > 50
52 | [O-][n+]1ccccc1SSc1cccc[n+]1[O-] [Dipyrithione] | 0.205
53 | CCOC(CN1CCN(CC(C)C(=O)c2ccccc2)CC1)c1ccccc1 (stereo not shown) [Eprazinone dihydrochloride] | > 50
54 | C1COCCN1 [Morpholine] | > 100
55 | OC[C@@H](O)C(O)[C@@H](O)CO (stereo partly shown) [Xylitol] | > 90
56 | N#CCBr [Bromoacetonitrile] | > 100
57 | COC(=O)c1cc(Cl)cc(Cl)c1 [Methyl 3,5-dichlorobenzoate] | > 90
58 | Cc1onc(-c2ccccc2Cl)c1C(=O)N[C@@H]1C(=O)N2[C@@H]1SC(C)(C)[C@@H]2C(=O)O [Cloxacillin sodium] | > 20
59 | CCC(=O)OC/C=C/c1ccccc1 [(2E)-3-Phenylprop-2-en-1-yl propanoate] | > 90
60 | CO/N=C(\C(=O)N[C@@H]1C(=O)N2C(C(=O)O)=C(CSC(=O)c3ccco3)CS[C@H]12)c1csc(N)n1 [Ceftiofur] | > 50
61 | O=S(=O)(c1cccc2cnccc12)N1CCCNCC1 [Fasudil hydrochloride] | > 50
62 | Cl[C@@H]1OCCO[C@H]1Cl [2,3-Dichloro-p-dioxane] | > 90
63 | N#Cc1c(F)cccc1F [2,6-Difluorobenzonitrile] | > 90
64 | CCOC(=O)C1=C(COCCN)NC(C)=C(C(=O)OC)C1c1ccccc1Cl (stereo not shown) [Amlodipine besylate] | 19.7
65 | CC(C)(O)c1ccccc1CC[C@@H](SCC1(CC(=O)O)CC1)c1cccc(/C=C/c2ccc3ccc(Cl)cc3n2)c1 [Montelukast sodium] | 35.1
66 | C=CCCCCCCCCCC [1-Dodecene] | > 90

Same assay, conditions: rat, gh3-tre-luc cells, AC50 (uM) modified / 1000, Tox21_110001=Tox21_112409; viability, 1 nM T3 present, 24 h

Row | Structure (SMILES) | CC50 at 24 h [µM]
67 | CCN(CC)C(=O)C(Cl)=C(C)OP(=O)(OC)OC [Phosphamidon] | > 50

Same assay, conditions: rat, gh3-tre-luc cells, AC50 (uM) modified / 1000, Tox21_110001=Tox21_112829; viability, 1 nM T3 present, 24 h

Row | Structure (SMILES) | CC50 at 24 h [µM]
68 | C[C@H](CN1CCOCC1)C(C(=O)N1CCCC1)(c1ccccc1)c1ccccc1 [Dextromoramide tartrate] | > 100

Same assay, conditions: rat, gh3-tre-luc cells, AC50 (uM) modified / 1000, Tox21_110001=Tox21_201288; viability, 1 nM T3 present, 24 h

Row | Structure (SMILES) | CC50 at 24 h [µM]
69 | Brc1ccc(Br)cc1 [1,4-Dibromobenzene] | > 90

Same assay, conditions: rat, gh3-tre-luc cells, AC50 (uM) modified / 1000, Tox21_110001=Tox21_201498; viability, 1 nM T3 present, 24 h

Row | Structure (SMILES) | CC50 at 24 h [µM]
70 | COc1ccc(N)cc1 [4-Methoxyaniline hydrochloride] | > 90

Same assay, conditions: rat, gh3-tre-luc cells, AC50 (uM) modified / 1000, Tox21_110001=Tox21_201786; viability, 1 nM T3 present, 24 h

Row | Structure (SMILES) | CC50 at 24 h [µM]
71 | CCCC=NO [Butanal oxime] | > 90

Same assay, conditions: rat, gh3-tre-luc cells, AC50 (uM) modified / 1000, Tox21_110001=Tox21_201977; viability, 1 nM T3 present, 24 h

Row | Structure (SMILES) | CC50 at 24 h [µM]
72 | NNc1ccccc1 [Phenylhydrazine] | 71

Same assay, conditions: rat, gh3-tre-luc cells, AC50 (uM) modified / 1000, Tox21_110001=Tox21_202100; viability, 1 nM T3 present, 24 h

Row | Structure (SMILES) | CC50 at 24 h [µM]
73 | CCN(CC)C(=O)C(Cl)=C(C)OP(=O)(OC)OC [Phosphamidon] | > 90

Same assay, conditions: rat, gh3-tre-luc cells, AC50 (uM) modified / 1000, Tox21_110001=Tox21_300253; viability, 1 nM T3 present, 24 h

Row | Structure (SMILES) | CC50 at 24 h [µM]
74 | O=C(NC(=O)c1cc(F)c(F)cc1Cl)Nc1cc(F)ccc1N1CCC(C(=O)O)CC1 [AVE2865] | > 50

Same assay, conditions: rat, gh3-tre-luc cells, AC50 (uM) modified / 1000, Tox21_110001=Tox21_300651; viability, 1 nM T3 present, 24 h

Row | Structure (SMILES) | CC50 at 24 h [µM]
75 | O=C(Nc1ccccc1)Nc1cnns1 [Thidiazuron] | > 90

Same assay, conditions: rat, gh3-tre-luc cells, AC50 (uM) modified / 1000, Tox21_110001=Tox21_302103; viability, 1 nM T3 present, 24 h

Row | Structure (SMILES) | CC50 at 24 h [µM]
76 | CN(C)c1ccc(C(c2ccccc2)c2ccc(N(C)C)cc2)cc1 [Leucomalachite green] | > 90

Same assay, conditions: rat, gh3-tre-luc cells, AC50 (uM) modified / 1000, Tox21_110001=Tox21_302121; viability, 1 nM T3 present, 24 h

Row | Structure (SMILES) | CC50 at 24 h [µM]
77 | ClCCCCCCCl [1,6-Dichlorohexane] | > 90

Same assay, conditions: rat, gh3-tre-luc cells, AC50 (uM) modified / 1000, Tox21_110001=Tox21_302420; viability, 1 nM T3 present, 24 h

Row | Structure (SMILES) | CC50 at 24 h [µM]
78 | CNC(=O)Oc1ccccc1C1OCCO1 [Dioxacarb] | > 90

Same assay, conditions: rat, gh3-tre-luc cells, AC50 (uM) modified / 1000, Tox21_110001=Tox21_303018; viability, 1 nM T3 present, 24 h

Row | Structure (SMILES) | CC50 at 24 h [µM]
79 | NNc1ccccc1 [Phenylhydrazine] | 42
